# US20240246941A1, “SUBSTITUTED 4-(3-AMINOPROP-1-YL)AMINOQUINOLINE ANALOGS AS MODULATORS OF MELANOMA-ASSOCIATED ANTIGEN 11 UBIQUITIN LIGASE” (ST. JUDE CHILDREN'S RESEARCH HOSPITAL, INC., priority 2020, published 2024)
# Biological target: MAGE-A11:PCF11 (Homo sapiens (Human), UniProt P43364)
# Test: TR-FRET single point screening at 15 μM
# Assay type: binding
# Parameters: unit not given here
# Conditions: single point TR-FRET screening at 15 μM against MAGE-A11:PCF11
# Procedure, shortened: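 Single-point screen at 15 μM (0.25% DMSO) measuring disruption of GST-MAGEA11 (5 nM) binding to FAM-PCF11_4 peptide (200 nM) detected by Tb-anti-GST (5 nM). Buffer 50 mM Tris pH 7.5, 20 mM MgCl2, 0.1 mg/ml BSA, 1 mM DTT; 90 min at ~25 °C; 520/490 nm ratio converted to % inhibition versus controls.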
# Chain of MAGE-A11:PCF11 (P43364 218-429): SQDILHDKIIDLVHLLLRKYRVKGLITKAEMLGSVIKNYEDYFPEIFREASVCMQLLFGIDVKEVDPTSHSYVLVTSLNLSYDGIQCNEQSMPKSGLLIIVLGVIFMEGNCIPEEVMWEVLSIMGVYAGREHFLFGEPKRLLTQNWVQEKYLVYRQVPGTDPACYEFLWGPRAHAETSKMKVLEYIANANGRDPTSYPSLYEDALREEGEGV
row,Structure (SMILES),TR-FRET signal
1,COc1ccc2nc3cc(Cl)ccc3c(NCCCNCCCSC)c2c1 [SJ000523025],−336.9
2,COc1ccc2nc3cc(Cl)ccc3c(NCCCNCc3ccsc3)c2c1 [SJ000523026],−353.8
3,COc1ccc2nc3cc(Cl)ccc3c(NCCCNCCC(C)c3ccccc3)c2c1 (stereo not drawn) [SJ000523027],−340.3
4,COc1ccc2nc3cc(Cl)ccc3c(NCCCNCc3ccc(C)s3)c2c1 [SJ000523029],−304.8
5,COc1ccc2nc3cc(Cl)ccc3c(NCCCNCc3ccc(Br)o3)c2c1 [SJ000523030],−219.4
6,COc1ccc2nc3cc(Cl)ccc3c(NCCCNCc3ccco3)c2c1 [SJ000523032],−165.3
7,COc1ccc(CNCCCNc2c3ccc(Cl)cc3nc3ccc(OC)cc23)cc1 [SJ000523033],−338.9
8,COc1ccc2nc3cc(Cl)ccc3c(NCCCNCc3ccccc3F)c2c1 [SJ000523034],−353.8
9,COc1ccc2nc3cc(Cl)ccc3c(NCCCNCc3ccc(F)cc3)c2c1 [SJ000523035],−398.2
10,COc1ccc2nc3cc(Cl)ccc3c(NCCCNCc3ccc(Cl)c([N+](=O)[O-])c3)c2c1 [SJ000523036],−95.38
11,COc1ccc2nc3cc(Cl)ccc3c(NCCCNCc3cccc(C#N)c3)c2c1 [SJ000523037],−333.2
12,COc1ccc2nc3cc(Cl)ccc3c(NCCCNCc3ccc4ccccc4c3)c2c1 [SJ000523038],−109.5
13,Cc1cc(C)c(CN2CCC(Nc3ccnc4cc(Cl)ccc34)CC2)c(C)c1 [SJ000523084],11.75
14,Clc1ccc2c(NC3CCN(CC4CCCCC4)CC3)ccnc2c1 [SJ000523085],15.43
15,CCC(CC)CN1CCC(Nc2ccnc3cc(Cl)ccc23)CC1 [SJ000523086],9.754
16,Clc1ccc2c(NC3CCN(Cc4ccc5c(c4)OCO5)CC3)ccnc2c1 [SJ000523087],7.643
17,CCCCCN1CCC(Nc2ccnc3cc(Cl)ccc23)CC1 [SJ000523088],12.17
18,Fc1ccc(CN2CCC(Nc3ccnc4cc(Cl)ccc34)CC2)cc1F [SJ000523089],−1.958
19,COc1ccc(CN2CCC(Nc3ccnc4cc(Cl)ccc34)CC2)cc1 [SJ000523090],23.72

row,Structure (SMILES),TR-FRET signal
1,Fc1ccccc1CN1CCC(Nc2ccnc3cc(Cl)ccc23)CC1 [SJ000523091],−0.9977
2,Fc1cccc(CN2CCC(Nc3ccnc4cc(Cl)ccc34)CC2)c1 [SJ000523092],6.622
3,Fc1ccc(CN2CCC(Nc3ccnc4cc(Cl)ccc34)CC2)cc1 [SJ000523093],10.66
4,O=[N+]([O-])c1ccccc1CN1CCC(Nc2ccnc3cc(Cl)ccc23)CC1 [SJ000523094],−2.026
5,O=[N+]([O-])c1cccc(CN2CCC(Nc3ccnc4cc(Cl)ccc34)CC2)c1 [SJ000523095],0.8927
6,O=[N+]([O-])c1ccc(CN2CCC(Nc3ccnc4cc(Cl)ccc34)CC2)cc1 [SJ000523096],−4.954
7,COc1ccccc1CN1CCC(Nc2ccnc3cc(Cl)ccc23)CC1 [SJ000523097],8.596
8,O=C(O)c1ccccc1CN1CCC(Nc2ccnc3cc(Cl)ccc23)CC1 [SJ000523098],−2.194
9,Clc1ccc2c(NC3CCN(Cc4cccc5ccccc45)CC3)ccnc2c1 [SJ000523099],−6.179
10,Clc1ccc2c(NC3CCN(Cc4ccc5ccccc5c4)CC3)ccnc2c1 [SJ000523100],4.171
11,Cc1cccc(CN2CCC(Nc3ccnc4cc(Cl)ccc34)CC2)c1 [SJ000523101],18.54
12,CN(C)c1ccc(CN2CCC(Nc3ccnc4cc(Cl)ccc34)CC2)cc1 [SJ000523102],13.09
13,COc1ccc(CN2CCC(Nc3ccnc4cc(Cl)ccc34)CC2)cc1OC [SJ000523103],11.75
14,Clc1ccc2c(NC3CCN(CCCc4ccccc4)CC3)ccnc2c1 [SJ000523104],20.65
15,CCC(C)CN1CCC(Nc2ccnc3cc(Cl)ccc23)CC1 (stereo not drawn) [SJ000523105],11.19
16,Cc1ccc(C)c(CN2CCC(Nc3ccnc4cc(Cl)ccc34)CC2)c1 [SJ000523106],18.68
17,COc1cccc(CN2CCC(Nc3ccnc4cc(Cl)ccc34)CC2)c1 [SJ000523107],3.149
18,CCCCCCN1CCC(Nc2ccnc3cc(Cl)ccc23)CC1 [SJ000523108],29.3

# Same assay, conditions: single point TR-FRET screening of quinoline compounds against MAGE-A11:PCF11; 15 μM
row,Structure (SMILES),TR-FRET signal
1,COc1ccc2nc3cc(Cl)ccc3c(NCCCNCc3ccc(N(C)C)c4ccccc34)c2c1 [SJ000523028],−1.532
2,COc1ccc2nc3cc(Cl)ccc3c(NCCCNCc3ccccc3N)c2c1 [SJ000523031],−57.15
3,CCCN(CCCNc1ccnc2cc(Cl)ccc12)Cc1ccc(-c2ccccc2)cc1 [SJ000523039],30.23
4,CCCN(CCCNc1ccnc2cc(Cl)ccc12)Cc1ccc2ccccc2c1 [SJ000523040],32.85
5,CCCN(CCCNc1ccnc2cc(Cl)ccc12)Cc1cccc(C)c1 [SJ000523041],28.55
6,CCCN(CCCNc1ccnc2cc(Cl)ccc12)Cc1ccc(C(=O)OC)cc1 [SJ000523042],16.72
7,CCCN(CCCNc1ccnc2cc(Cl)ccc12)Cc1ccc(Cl)cc1Cl [SJ000523043],12.1
8,CCCN(CCCNc1ccnc2cc(Cl)ccc12)Cc1ccc(-c2ccccc2[N+](=O)[O-])o1 [SJ000523044],9.266
9,CCCN(CCCNc1ccnc2cc(Cl)ccc12)Cc1ccc(-c2cccc(Cl)c2)o1 [SJ000523045],16.23
10,CCCN(CCCNc1ccnc2cc(Cl)ccc12)Cc1c(Cl)ccc(Cl)c1Cl [SJ000523046],17.75
11,CCCN(CCCNc1ccnc2cc(Cl)ccc12)Cc1ccc([N+](=O)[O-])o1 [SJ000523047],9.575
12,CCCCCCN(CCC)CCCNc1ccnc2cc(Cl)ccc12 [SJ000523048],1.317
13,Clc1ccc2c(NCCCNCc3ccncc3)ccnc2c1 [SJ000523049],6.077
14,Clc1ccc2c(NCCCNCc3ccccn3)ccnc2c1 [SJ000523050],4.744
15,CSCCCNCCCNc1ccnc2cc(Cl)ccc12 [SJ000523051],14.97
16,Clc1ccc2c(NCCCNCc3ccsc3)ccnc2c1 [SJ000523052],15.25
17,CC(CCNCCCNc1ccnc2cc(Cl)ccc12)c1ccccc1 (stereo not drawn) [SJ000523053],19.01
18,CCCCCNCCCNc1ccnc2cc(Cl)ccc12 [SJ000523057],25.82
19,Cc1c(CNCCCNc2ccnc3cc(Cl)ccc23)c(=O)n(-c2ccccc2)n1C [SJ000523058],5.584
20,O=[N+]([O-])c1ccccc1-c1ccc(CNCCCNc2ccnc3cc(Cl)ccc23)o1 [SJ000523068],21.65
21,Clc1cccc(-c2ccc(CNCCCNc3ccnc4cc(Cl)ccc34)o2)c1 [SJ000523069],33.51
22,CCCN(CCCNc1ccnc2cc(C(F)(F)F)ccc12)Cc1ccc(F)cc1 [SJ000523070],26.44

row,Structure (SMILES),TR-FRET signal
1,CCCN(CCCNc1ccnc2cc(C(F)(F)F)ccc12)Cc1ccccc1[N+](=O)[O-] [SJ000523071],−7.745
2,CCCN(CCCNc1ccnc2cc(C(F)(F)F)ccc12)Cc1ccccc1OC [SJ000523072],32.61
3,CCCN(CCCNc1ccnc2cc(C(F)(F)F)ccc12)Cc1ccccc1C(=O)O [SJ000523073],16.86
4,CCCN(CCCNc1ccnc2cc(C(F)(F)F)ccc12)Cc1cccc2ccccc12 [SJ000523074],14.32
5,CCCN(CCCNc1ccnc2cc(C(F)(F)F)ccc12)Cc1ccc2ccccc2c1 [SJ000523075],11.39
6,CCCN(CCCNc1ccnc2cc(C(F)(F)F)ccc12)Cc1cccc(C)c1 [SJ000523076],20.17
7,CCCN(CCCNc1ccnc2cc(C(F)(F)F)ccc12)Cc1ccc(N(C)C)cc1 [SJ000523077],23.71
8,CCCN(CCCNc1ccnc2cc(C(F)(F)F)ccc12)Cc1ccc(Cl)cc1Cl [SJ000523078],3.83
9,CCCN(CCCNc1ccnc2cc(C(F)(F)F)ccc12)Cc1ccc(OC)c(OC)c1 [SJ000523079],14.66
10,CCCN(CCCNc1ccnc2cc(C(F)(F)F)ccc12)CCCc1ccccc1 [SJ000523080],28
11,CCCN(CCCNc1ccnc2cc(C(F)(F)F)ccc12)CC(C)CC (stereo not drawn) [SJ000523081],22.28
12,CCCN(CCCNc1ccnc2cc(C(F)(F)F)ccc12)Cc1cc(C)ccc1C [SJ000523082],21.74
13,CCCCCCN(CCC)CCCNc1ccnc2cc(C(F)(F)F)ccc12 [SJ000523083],34.95
14,CCCN(CCCNc1c2ccc(Cl)cc2nc2ccc(OC)cc12)CC1CCOC1 (stereo not drawn) [SJ000575149],−35.94
15,CCCN(CCCNc1c2ccc(Cl)cc2nc2ccc(OC)cc12)CC(C)C [SJ000575150],−21.37
16,CCCN(CCCCCC(=O)OC)CCCNc1c2ccc(Cl)cc2nc2ccc(OC)cc12 [SJ000575151],−37.41
17,CCCN(CCCNc1c2ccc(Cl)cc2nc2ccc(OC)cc12)Cc1cccnc1 [SJ000575152],−23.4
18,CCCN(CCCNc1ccnc2cc(C(F)(F)F)ccc12)Cc1nccn1C [SJ000575170],7.124
19,CCCN(CCCNc1ccnc2cc(C(F)(F)F)ccc12)Cc1ccc2[nH]ccc2c1 [SJ000575171],32.89
20,CCCN(CCCNc1ccnc2cc(C(F)(F)F)ccc12)Cc1scnc1C [SJ000575179],5.164
21,CCCN(CCCNc1ccnc2cc(C(F)(F)F)ccc12)Cc1cccnc1Br [SJ000575180],5.164
22,CCCN(CCCNc1ccnc2cc(C(F)(F)F)ccc12)Cc1ncc[nH]1 [SJ000575181],9.345
